In patent US20260248734A1, “COMPOSITIONS AND METHODS FOR TREATING METABOLIC DISEASES/DISORDERS” (priority 2023, published 2026):

B1: CO3A1: Collagen 3A1 recombinant protein (R&D Systems) coated on culture plates (protein, UniProt P02461 154-1221, looked up)
Collagen alpha-1(III) chain: QYDSYDVKSGVAVGGLAGYPGPAGPPGPPGPPGTSGHPGSPGSPGYQGPPGEPGQAGPSGPPGPPGAIGPSGPAGKDGESGRPGRPGERGLPGPPGIKGPAGIPGFPGMKGHRGFDGRNGEKGETGAPGLKGENGLPGENGAPGPMGPRGAPGERGRPGLPGAAGARGNDGARGSDGQPGPPGPPGTAGFPGSPGAKGEVGPAGSPGSNGAPGQRGEPGPQGHAGAQGPPGPPGINGSPGGKGEMGPAGIPGAPGLMGARGPPGPAGANGAPGLRGGAGEPGKNGAKGEPGPRGERGEAGIPGVPGAKGEDGKDGSPGEPGANGLPGAAGERGAPGFRGPAGPNGIPGEKGPAGERGAPGPAGPRGAAGEPGRDGVPGGPGMRGMPGSPGGPGSDGKPGPPGSQGESGRPGPPGPSGPRGQPGVMGFPGPKGNDGAPGKNGERGGPGGPGPQGPPGKNGETGPQGPPGPTGPGGDKGDTGPPGPQGLQGLPGTGGPPGENGKPGEPGPKGDAGAPGAPGGKGDAGAPGERGPPGLAGAPGLRGGAGPPGPEGGKGAAGPPGPPGAAGTPGLQGMPGERGGLGSPGPKGDKGEPGGPGADGVPGKDGPRGPTGPIGPPGPAGQPGDKGEGGAPGLPGIAGPRGSPGERGETGPPGPAGFPGAPGQNGEPGGKGERGAPGEKGEGGPPGVAGPPGGSGPAGPPGPQGVKGERGSPGGPGAAGFPGARGLPGPPGSNGNPGPPGPSGSPGKDGPPGPAGNTGAPGSPGVSGPKGDAGQPGEKGSPGAQGPPGAPGPLGIAGITGARGLAGPPGMPGPRGSPGPQGVKGESGKPGANGLSGERGPPGPQGLPGLAGTAGEPGRDGNPGSDGLPGRDGSPGGKGDRGENGSPGAPGAPGHPGPPGPVGPAGKSGDRGESGPAGPAGAPGPAGSRGAPGPQGPRGDKGETGERGAAGIKGHRGFPGNPGAPGSPGPAGQQGAIGSPGPAGPRGPVGPSGPPGKDGTSGHPGPIGPPGPRGNRGERGSEGSPGHPGQPGPPGPPGAPGPCCGGVGAAAIAGIGGEKAGGFAPYYG

What was measured:
[1] = test system: differentiated human adipocytes; experiment: Thermogenic gene expression in human adipocytes in vitro by real-time PCR; format: cell-based
Method: RNA from iWAT tissue and cells was isolated and purified using a Qiagen Rneasy Mini Kit (Valencia, CA) according to manufacturer guidelines. mRNA concentrations were measured using a Take3 Micro-Volume Plate (BioTek, Winooski, VT), then normalized to 150 ng of mRNA for conversion to cDNA. cDNA was synthetized using random hexamer primers and an iScript cDNA-synthesis kit (Biorad). The quantitative RT-PCR reactions were performed using the So Advanced™ Universal SYBER Green Supermix kit (Biorad) in a CFX96 Touch Real-Time PCR Detection System (BioRad, Hercules, CA). Fold expression levels were calculated using the […]. Transcript levels were normalized to 18S ribosomal RNA levels in all experiments. Primer (Table 1) specificity was tested by assessing the melting curve.

[2] = test system: adipose derived stem cells (ASCs) isolated from WT SubQ WAT; experiment: Beige differentiation of ASCs on ECM protein coated surfaces, beige marker expression by RT-PCR; format: cell-based, mice; details: for reduction in UCP1 relative to uncoated surfaces: ASCs beige-differentiated on coated surface; for COX7A1 expression: differentiated cells on coated surface
Method: Immunohistochemistry. SubQ fat was harvested from animals using sterile techniques, cut into small pieces and fixed in 4% paraformaldehyde for 24 hours at 4 degrees. Tissue pieces were then washed with phosphate buffered saline (PBS), permeabilized with 0.5% triton in PBS and blocked with 10% donkey serum; followed by incubation with either 1) ITA7 antibody (1:100, Novus Biologics NBP1-86,118) and Griffonia simplicifolia isolectin conjugated with Rhodamine to labels endothelial cells, or 2) ITA7 antibody and CD68 antibody (1:100, Santa Cruz sc-70761) to label macrophages for 48 hours at 4 degrees. After washes (3×15 minutes), the tissues were incubated with second antibodies (Alexa Fluor 647 Donkey Anti-Rabbit IgG and/or TRITC Goat Anti-Mouse, IgG), BODIPY to stain lipid droplets and DAPI to stain the nuclei, for 2 hours at room temperature. Confocal imaging. A confocal laser-scanning microscope was used to image samples (Leica TCS SP8 Confocal Microscope; Buffalo Grove, IL). Adipocytes labeled by BODIPY and ITA7 labeled by Alexa Fluor 647 were imaged simultaneously in two channels, with Rhodamine-labeled endothelial tissue or TRITC CD68-labeled macrophages, and DAPI nuclei imaged in series. Confocal image stacks were obtained with a 63×oil immersion lens (NA 1.4). Laser intensity, confocal aperture, and photomultiplier gain were kept constant across samples. Image processing and analysis: Confocal image stacks were processed and analyzed using Leica LASX software version 3.5.2 (Wetzlar, Germany). The Alexa 647 and Rhodamine channels were thresholded and the intersection between both layers was quantified in order to characterize the colocalization between ITA7 and endothelial cells. In separate tissue, the colocalization between ITA7 and CD68 positive cells was also quantified. Using 3D images, the Alexa 647, Rhodamine or TRITC and intersection area per cell were calculated. cytoNet image analysis: cytoNet is a software accessible over the web that quantifies the spatial relationships in cell communities using principles of graph theory and evaluates the effect of cell-cell interactions on individual cell phenotypes (https://www.braininitiative.org/toolmakers/resources/cytonet/). Image files were segmented manually and provided as input to cytoNet. Because blood vessels have noncircular shapes, the minimum distance between object perimeters was computed in order to define graph edges. The resulting cell-to-cell perimeter distance and cells characteristics were analyzed in WT and KO SubQ WAT images. RNA isolation and quantitative RT-PCR. RNA from tissue and cells was isolated and purified using a Qiagen RNeasy Mini Kit (Valencia, CA) according to manufacturer guidelines. mRNA concentrations were measured using a Take3 Micro-Volume Plate (BioTek. Winooski, VT), then normalized to 150 ng of mRNA for conversion to cDNA. cDNA was synthetized using random hexamer primers and an iScript cDNA-synthesis kit (Biorad). The quantitative RT-PCR reactions were performed using the So Advanced™ Universal SYBER Green Supermix kit (Biorad) in a CFX96 Touch Real-Time PCR Detection System (BioRad, Hercules. CA). Fold expression levels were calculated using the 2^ΔΔCt method. Transcript levels were normalized to 18S ribosomal RNA levels in all experiments that used mice cells (FIGS. 3, 4, 7), or the GAPDH reference gene in experiments with human cells (FIG. 6). Primer (Table 1) specificity was tested by the assessing the melting curve. Western blot analysis. Cells were lysed using CelLytic (Sigma, St. Louis, MO) and tissue was lysed using RIPA buffer (EMD Millipore, Billerica, MA) and protease inhibitor cocktail (Fischer Scientific, Waltham, MA). Protein concentration was determined using the Bio-Rad DC protein assay (Bio-Rad Laboratories, Hercules. CA). […]

ASCs = experiment: Hydrogen peroxide (ROS-Glo H2O2) assay of ASCs differentiated on coated surfaces; format: cell-based, mice; details: compared to uncoated surface

| Molecule | peak of efficacy on browning after administration [1] | increase in Cox7A1 gene expression ([1]; 6 h of treatment) [fold] | increase in UCP1 gene expression ([1]; 6 h of treatment) | reduction in UCP1 relative to uncoated surfaces [2] [%] | PGC1A levels ([2]; compared to uncoated surfaces) | COX7A1 expression [2] | ROS levels (ASCs) |
| --- | --- | --- | --- | --- | --- | --- | --- |
| C=C[C@@]1(C)CC(=O)[C@]2(O)[C@@]3(C)[C@@H](O)CCC(C)(C)[C@@H]3[C@H](O)[C@H](OC(C)=O)[C@@]2(C)O1 [FSK, (13R)-1α,6β,9α-Trihydroxy-11-oxo-8α,13-epoxylabd-14-en-7β-yl acetate] | ~ 6 h | 1.5 | ~ 5 fold |  |  |  |  |
| CO1A1: Collagen 1A1 recombinant protein (R&D Systems) coated on culture plates |  |  |  | 71.7 | significant decrease | significant decrease |  |
| LAMA4: Laminin α4 recombinant protein (R&D Systems) coated on culture plates |  |  |  | 51.4 |  | significant decrease | higher ROS levels |
| B1 |  |  |  | 91.16 |  | significant decrease |  |
